From US10105380B2, “Glycoclusters and their pharmaceutical use as antibacterials” (priority 2013, dated 2018)
Values after ≈ are worked out from the molar mass of the structure shown. Like-named read-outs stand apart in the source and are kept apart here.

Tests used:
PA-IL [1] = biological target: T1, PA-IL (Pseudomonas aeruginosa, UniProt Q05097); assay: Kd determination on DDI microarray (Langmuir isotherm, Scatchard plot); type: binding
Experimental: The methodologies for Kd and IC50 value determination have been previously reported (Gerland, B. et al., (2012) Bioconjugate Chem. 23, 1534-1547; Zhang, J. et al., (2009) Chem. Comm., 6795-6797; Zhang, J. et al., (2009) Biosens. Bioelectron. 24, 2515-2521).
CaCl2 (1 μg/mL final concentration) was added. PA-IL at the desired final concentration was then added. 2 μL of each solution (corresponding to the desired PA-IL concentration) were poured in the corresponding microwells. The slide was incubated (3 h, 37° C.) in a water vapor saturated chamber and finally washed in PBS-Tween 20 (0.02%, 5 min, 4° C.) and dried. A Microarray scanner, GenePix 4100A software package (Axon Instruments; λex 532/635 nm and λem 575/670 nm) was used for fluorescent imaging of both fluorophore (Cy3 and Alexa 647). The average of the mean fluorescence signal was calculated from eight spots. The resulting Langmuir Isotherms were linearised using Scatchard plot to give the Kd values at the ordonnate intercept.

PA-IL [2] = biological target: T1, PA-IL; type: binding; conditions: for β: Table 6, relative potency vs monovalent ligand 31; for Potency vs EG3-O-Gal: ratio of IC50Lac to mono EG3-O-galactose (entry 1); for Potency vs AcNPhe-O-Gal: ratio of IC50Lac to mono-aromatic galactose 31 (entry 2)
Experimental: IC50 Determination with “on Chip” Biological Recognition
Lectin PA-IL (0.12 μM final concentration), BSA (2% final concentration) and CaCl2 (1 μg/mL final concentration) was diluted in PBS1× (pH=7.4). In each micro tube was added the inhibitor lactose at the desired final concentration (0; 1.10^−5; 1.10^−4; 5.10^−4; 1.10^−3; 5.10^−3; 1.10^−2; 5.10^−2; 0.1; 1; 5; 10; 50; 10^2; 5.10^2; 10^3; 5.10^3; 10^4; 10^5; 3.10^5).
2 μL of each solution were deposited in the corresponding microwells and the slide was incubated at 37° C. in a water vapor saturated chamber for 3 h. The washing steps are: PBS-Tween0.2% 5 min at 4° C., then briefly in deionized water and dried by centrifugation.
Slide was scanned at 532 nm then at 635 nm with the Microarray scanner, GenePix 4100A software package (Axon Instruments; λex 532/635 nm and λem 575/670 nm). The fluorescence signal of each conjugate was determined as the average of the mean fluorescence signal of sixty-four spots.
IC50 values were determined using “BioDataFit 1.02 program”. The model chosen was “Sigmoidal”: Y=a+(b−a)/[1+10^(x−c)]
with a=FImin, b=FImax, x=[…] and c=log(IC50). FImin/max is the minimum/maximum Alexa-647 fluorescence signal observed for a galactomimetic.
So the IC50 value was called IC50Lac.

PA-IL [3] = biological target: T1, PA-IL; assay: Hemagglutination inhibition assay (HIA), rabbit erythrocytes; type: cell-based
Experimental: (§1) The binding of PA-IL to galactoclusters was probed as the ability of the clusters to inhibit the binding of PA-IL to rabbit erythrocytes (Hemagglutination inhibition assay, HIA) or to surface bound galactosyl modified polyacrylamide either by Surface Plasmon Resonance (SPR), Enzyme Linked Assay (ELLA) Inhibition was measured with competitive assays. In HIA experiments, the minimal inhibitory concentration (MIC) is the minimal concentration of galactocluster that inhibit the hemagglutination of rabbit erythrocytes in presence of the lectin. The lower the MIC the highest is the binding of the galactocluster to the lectin. SPR and ELLA were used to determine the IC50 value. […] The lower the IC50 value as determined by SPR (^SPRIC50) and ELLA (^ELLAIC50), the higher is the binding of PA-IL to the galactocluster.
Hemagglutination inhibition assays (HIA) were performed in U-shaped 96-well microtitre plates. Rabbit erythrocytes were purchased from Biomérieux and used without further washing. Erythrocytes were diluted to a 8% solution in NaCl (100 mM). PA-IL solutions of 3 μM were prepared in TRIS-HCl 20 mM (TRIS=tris(hydroxymethyl)aminomethane), NaCl 100 mM, and CaCl2 100 mM. The hemagglutination unit (HU) was first obtained by addition of the 4% erythrocyte solution (50 μL) to aliquots (50 μL) of sequential (twice) lectin dilutions. The mixture was incubated at 25° C. for 30 min. The HU was measured as the minimum lectin concentration required to observe hemagglutination. For the following lectin-inhibition assays, lectin concentrations of 4 HU were used. […] Subsequent inhibition assays were then carried out by the addition of lectin solution (25 μL, at the required concentration) to sequential dilutions (50 μL) of glycoclusters, monomer molecules, and controls. These solutions were incubated at 37° C. for 30 min, then 8% erythrocyte solution (25 μL) was added, followed by an additional incubation at 37° C. for 1 h. The minimum inhibitory concentration for each molecule was determined for each duplicate.

PA-IL [4] = biological target: T1, PA-IL; assay: Surface Plasmon Resonance (SPR) inhibition; type: binding
Experimental: as §1
SPR inhibition experiments were performed using a Biacore 3000 instrument at 25° C. Measurements were carried out on two channels with two immobilized sugars: α-L-fucose (channel 1) and α-D-galactose (channel 2). Immobilization of sugars was performed at 25° C. using running buffer (HBS) at […]. Immobilization on each channel (CM5 Chip) was performed independently as follows. First, the channel was activated by injecting a fresh mixture of EDC/NHS (35 μL, 420 s). Then a solution of streptavidin ([…] in 0.1 mM AcONa pH 5 buffer) was injected (50 μL, 600 s). The remaining reactive species were quenched by injecting ethanolamine (1M, 35 μL, 420 s) into the solution. Finally, a solution of the desired biotinylated-polyacrylamide-sugar (lectinity, […]) was coated onto the surface (50 μL, 600 s) through streptavidin-biotin interaction. […] Inhibition studies consisted of the injection (150 μL, 10 μL·min^−1, dissociation 120 s) of incubated (>1 h, RT) mixtures of PAIL ([…]) and various concentrations of inhibitor (twofold cascade dilutions). […] The CM5 chip was fully regenerated by successive injections of d-galactose (2×30 μL, 100 mm in running buffer). Binding was measured as RU over time after blank subtraction, and data were then evaluated using the BIAevaluation Software version 4.1. For IC50 evaluation, the response (Req-fitted) was considered to be the amount of lectin bound to the carbohydrate-coated surface at equilibrium in the presence of a defined concentration of inhibitor. Inhibition curves were obtained by plotting the percentage of inhibition against the inhibitor concentration (on a logarithmic scale) by using Origin 7.0 software (OriginLab Corp.), and IC50 values were extracted from sigmoidal fit of the inhibition curve.
Microtiter plates were modified with PAA-galactose. […] The lowest the IC50 as determined the strongest is the binding of the studied molecule to PA-IL. […]

PA-IL [5] = biological target: T1, PA-IL; assay: Enzyme Linked Lectin Assay (ELLA), PAA-galactose coated plates; type: binding
Experimental: as §1
96-Well microtiter plates (NuncMaxisorb) were coated with α-PAA-Gal(PAA=polyacrylamide) for PA-IL (Lectinity Holding, Inc.): 100 μL of 5 μg·mL^−1 in carbonate buffer, pH 9.6 for 1 h at 37° C., then blocking at 37° C. for 1 h with 100 μL per well of 3% (w/v) bovine serum albumin (BSA) in phosphate buffer solution (PBS). Lectin solutions (75 μL) were diluted (1:2) starting from 30 μg·mL^−1. After 1 h incubation at 37° C. and three washes with T-PBS (PBS that contained 0.05% Tween 20), horseradish peroxidase (HRP)-streptavidin conjugate (100 μL; dilution 2:8000; Boehringer-Mannheim) was added and left for 1 h at 37° C. Coloration was developed by using 100 μL per well of 0.05% phosphate/citrate buffer that contained o-phenylenediaminedihydrochloride ([…]) and urea hydrogen peroxide (0.4 mg·mL^−1) (OPD kit, Sigma-Aldrich) for 15 min and stopped with sulfuric acid (50 μL, 30%). Absorbance was then read at 490 nm using a microtiter plate reader (BioRad 680). The concentration of biotinylatedlectins was determined by plotting the relative absorbance versus lectin concentration. The concentration that led to the highest response in the linear area was selected as the standard lectin concentration for the subsequent inhibition experiments.
Microtiter plates were modified with PAA-galactose. Slides were incubated with increasing concentration of galactosylated ligands. […] The lowest the IC50 as determined the strongest is the binding of the studied molecule to PA-IL. ELLA: This IC50 will be referred here after ^ELLAIC50. SPR: This IC50 will be referred here after ^SPRIC50.

PA-IL [6] = biological target: T1, PA-IL; assay: DDI glycoarray, direct fluorescence scanning with Alexa647-PA-IL; type: binding; conditions: result in words
[7] = DNA-tagged galactoclusters G1-G24 on glycoarray
[8] = lactose concentration required to displace 50% of PA-IL from the glycocluster, higher = better binding, read-out: IC50Lac
[9] = DNA-tagged galactoclusters G1-G24 on glycoarray, read-out: IC50
[10] = IC50 of Gal-ArNO2 over IC50 of the molecule
[11] = IC50 of Gal-OMe over IC50 of the molecule

T1 sequence (Q05097 2-122): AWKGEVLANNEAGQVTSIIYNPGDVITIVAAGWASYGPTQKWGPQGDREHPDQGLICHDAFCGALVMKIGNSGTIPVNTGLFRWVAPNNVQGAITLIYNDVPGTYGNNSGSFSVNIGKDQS

Question: For Man(EG2MTzproNCOBisphe-OGal)4 [G17], which Kd (PA-IL [1]; [7]) is on record?
Answer: 0.02 µM

Question: With Man(POProTzEG3-O-Gal)4 [C3] as the compound, how does the β (PA-IL [2]) read?
Answer: 1.8

Question: And the IC50 (PA-IL [2]; [8])?
Answer: 29 µM

Question: What about the “Potency vs EG3-O-Gal” value (PA-IL [2]) of the same compound?
Answer: 5.8

Question: And the “Potency vs AcNPhe-O-Gal” value (PA-IL [2])?
Answer: 1.8

Question: How did the IC50 (PA-IL [2]; [9]) turn out when Man(PSEG2MTzAcNPhe-CH2-Gal)4 [G6] was run?
Answer: 5700 µM

Question: And the Kd (PA-IL [1]; [7])?
Answer: 0.17 µM

Question: How did the IC50 (PA-IL [2]; [9]) turn out when Man(PSEG3MTzAcNPhe-CH2-Gal)4 [G8] was run?
Answer: 8400 µM

Question: What about the Kd (PA-IL [1]; [7]) of the same compound?
Answer: 0.125 µM

Question: How did the Kd (PA-IL [1]; [7]) turn out when Man(EG2MTzproNCONapht-OGal)4 [G21] was run?
Answer: 0.014 µM

Question: For Man(POProTzAcNPhe-O-Gal)8 [compound 34], which IC50 (PA-IL [2]; [8]) is on record?
Answer: 6800 µM

Question: And the “Potency vs EG3-O-Gal” value (PA-IL [2])?
Answer: 1361

Question: What about the “Potency vs AcNPhe-O-Gal” value (PA-IL [2]) of the same compound?
Answer: 425

Question: How did the MIC (PA-IL [3]; minimal inhibitory concentration of hemagglutination, PA-IL 3 μM) turn out when `O=[N+]([O-])c1ccc(O[C@@H]2O[C@H](CO)[C@H](O)[C@H](O)[C@H]2O)cc1` [Gal-ArNO2, 1-O-p-nitrophenyl-β-D-galactoside] was run?
Answer: 2000 µM (≈ 603 µg/mL)

Question: What about the βAr (PA-IL [3]; ratio of MIC of Gal-OArNO2 over MIC of the molecule) of the same compound?
Answer: 1.0

Question: What about the βMe (PA-IL [3]; ratio of MIC of Gal-OMe over MIC of the molecule) of the same compound?
Answer: 8.0

Question: What about the IC50 (PA-IL [4]) of the same compound?
Answer: 6.7 µM

Question: What about the “SPR βAr” value (PA-IL [4]; [10]) of the same compound?
Answer: 1.0

Question: And the “SPR βMe” value (PA-IL [4]; [11])?
Answer: 7.3

Question: And the IC50 (PA-IL [5])?
Answer: 33 µM

Question: What about the “ELLA βAr” value (PA-IL [5]; [10]) of the same compound?
Answer: 1.0

Question: What about the “ELLA βMe” value (PA-IL [5]; [11]) of the same compound?
Answer: 5.5

Question: For Man(PSEG3MTzproNCONapht-OGal)4 [G24], which Kd (PA-IL [1]; [7]) is on record?
Answer: 0.031 µM

Question: With Man(EG3MTzAcNPhe-CH2-SGal)4 [G15] as the compound, how does the IC50 (PA-IL [2]; [9]) read?
Answer: 13300 µM

Question: What about the Kd (PA-IL [1]; [7]) of the same compound?
Answer: 0.076 µM

Question: With Man(POProTzAcNPhe-O-Gal)4 [17d] as the compound, how does the “binding to PA-IL on microarray” value (PA-IL [6]) read?
Answer: high binding

Question: And the β (PA-IL [2])?
Answer: 177

Question: And the “Potency vs EG3-O-Gal” value (PA-IL [2])?
Answer: 565

Question: And the “Potency vs AcNPhe-O-Gal” value (PA-IL [2])?
Answer: 177

Question: And the Kd (PA-IL [1]; text b577, microarray, Langmuir isotherm)?
Answer: 0.196 µM

Question: Which IC50 (PA-IL [2]; [8]) does the source give for “Man[POTHME(MTzAcNPhe-O-Gal)2]4 [compound 35]” here?
Answer: 1810 µM

Question: And the “Potency vs EG3-O-Gal” value (PA-IL [2])?
Answer: 361

Question: What about the “Potency vs AcNPhe-O-Gal” value (PA-IL [2]) of the same compound?
Answer: 113

Question: Man(EG3MTzAcNPhe-CH2-Gal)4 [G7] was tested. Which IC50 (PA-IL [2]; [9]) did it give?
Answer: 9100 µM

Question: And the Kd (PA-IL [1]; [7])?
Answer: 0.085 µM

Question: What does the source list for Man(EG2MTzAcNPhe-CH2-SGal)4 [G13]?
Answer: IC50 (PA-IL [2]; [9]): 12000 µM; Kd (PA-IL [1]; [7]): 0.085 µM

Question: Man(POEG2MTzEG3-Gal)4 [compound 36] was tested. Which IC50 (PA-IL [2]; [8]) did it give?
Answer: 24 µM

Question: And the “Potency vs EG3-O-Gal” value (PA-IL [2])?
Answer: 4.8

Question: And the “Potency vs AcNPhe-O-Gal” value (PA-IL [2])?
Answer: 1.5
